Tests used:
[1] = Toxicity in high fat diet-STZ-induced diabetic Swiss albino mouse model assessed as changes in body weight at 0.2 mmol/Kg/day, po administered for 14 days (reference value: 26.6 to 27.8 g); format: organism-based; details: in vivo, 336 h, time 14 day
[2] = Acute toxicity in Swiss albino mouse assessed as toxic symptoms up to 2000 mg/kg, po administered for 14 days; format: organism-based; details: in vivo, 336 h, time 14 day
[3] = tested on: Mus musculus; experiment: Antidiabetic activity against high fat diet-STZ-induced diabetic Swiss albino mouse model assessed as reduction in blood glucose level at 0.2 mmol/Kg/day, po administered for 14 days relative to control; format: functional; set-up: scale not given: the % may be the effect or the level left; details: time 14 day
[4] = tested on: Mus musculus; experiment: Antidiabetic activity against high fat diet-STZ-induced diabetic Swiss albino mouse model assessed as reduction in blood glucose level at 0.2 mmol/Kg/day, po administered for 14 days; format: functional; details: time 14 day
[5] = tested on: Mus musculus; experiment: Antidiabetic activity against high fat diet-STZ-induced diabetic Swiss albino mouse model assessed as insulin resistance by measuring serum IL6 level at 0.2 mmol/Kg/day, po administered for 14 days by ELISA method (reference value: 39.30+/-4.14 pg/ml); format: functional; details: time 14 day
[6] = Acute toxicity in Swiss albino mouse assessed as effect on mortality up to 2000 mg/kg, po administered for 14 days; format: organism-based; details: in vivo, 336 h, time 14 day
[7] = tested on: Mus musculus; experiment: Antioxidant activity against high fat diet-STZ-induced diabetic Swiss albino mouse model assessed as serum SOD level at 0.2 mmol/Kg/day, po administered for 14 days (reference value: 273.01+/- 6.23 U/ml); format: functional; details: time 14 day
[8] = Acute toxicity in Swiss albino mouse assessed as effect on motor alterations up to 2000 mg/kg, po administered for 14 days; format: organism-based; details: in vivo, 336 h, time 14 day
[9] = Acute toxicity in Swiss albino mouse assessed as effect on behavioural change up to 2000 mg/kg, po administered for 14 days; format: organism-based; details: in vivo, 336 h, time 14 day
[10] = tested on: Mus musculus; experiment: Antidiabetic activity against high fat diet-STZ-induced diabetic Swiss albino mouse model assessed as insulin resistance by measuring serum TNFalpha level at 0.2 mmol/Kg/day, po administered for 14 days by ELISA method (reference value: 376.50+/-14.50 ng/ml); format: functional; details: time 14 day
[11] = tested on: Mus musculus; experiment: Antidiabetic activity against high fat diet-STZ-induced diabetic Swiss albino mouse model assessed as reduction in blood glucose level at 0.2 mmol/Kg/day, po administered for 14 days relative to glimepiride; format: functional; set-up: scale not given: the % may be the effect or the level left; details: time 14 day
[12] = tested on: Mus musculus; experiment: Antioxidant activity against high fat diet-STZ-induced diabetic Swiss albino mouse model assessed as serum catalase level at 0.2 mmol/Kg/day, po administered for 14 days (reference value: 378.22+/- 14.45 U/ml); format: functional; details: time 14 day
[13] = tested on: Mus musculus; experiment: Antidiabetic activity against high fat diet-STZ-induced diabetic Swiss albino mouse model assessed as serum insulin level at 0.2 mmol/Kg/day, po administered for 14 days by ELISA method (reference value: 16.37 +/- 0.62 uU/ml); format: functional; details: time 14 day
[14] = tested on: Mus musculus; experiment: Antioxidant activity against high fat diet-STZ-induced diabetic Swiss albino mouse model assessed as serum MDA level at 0.2 mmol/Kg/day, po administered for 14 days (reference value: 8.70+/- 0.09 nmol/ml); format: functional; details: time 14 day
[15] = biological target: T1, Alpha amylase (Homo sapiens, UniProt P0DUB6); experiment: Inhibition of alpha amylase (unknown origin) measured after 20 to 25 mins
T1 sequence (P0DUB6 whole entry): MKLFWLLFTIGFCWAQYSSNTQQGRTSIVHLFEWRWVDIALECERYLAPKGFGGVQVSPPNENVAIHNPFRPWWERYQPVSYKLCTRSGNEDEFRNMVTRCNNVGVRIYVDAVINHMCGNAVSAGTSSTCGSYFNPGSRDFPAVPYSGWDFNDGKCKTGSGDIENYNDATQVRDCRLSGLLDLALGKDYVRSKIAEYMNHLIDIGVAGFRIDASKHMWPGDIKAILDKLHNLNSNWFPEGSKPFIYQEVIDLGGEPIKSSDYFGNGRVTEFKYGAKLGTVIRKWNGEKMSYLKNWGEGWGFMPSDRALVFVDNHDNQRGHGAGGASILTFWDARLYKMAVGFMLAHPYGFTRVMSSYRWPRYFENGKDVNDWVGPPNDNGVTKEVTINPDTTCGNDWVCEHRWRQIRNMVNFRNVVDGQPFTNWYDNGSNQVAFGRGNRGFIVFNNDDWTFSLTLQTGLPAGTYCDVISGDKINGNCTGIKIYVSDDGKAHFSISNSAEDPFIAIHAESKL

[16] = tested on: INS1; experiment: Induction of apoptosis in rat INS1 cells assessed as necrotic cells at 1 uM incubated for 36 hrs by Annexin V-FITC/ propidium iodide staining based flow cytometry analysis (reference value: 1.15%); format: functional
[17] = tested on: INS1; experiment: Induction of apoptosis in rat INS1 cells assessed as late apoptotic cells at 1 uM incubated for 36 hrs by Annexin V-FITC/ propidium iodide staining based flow cytometry analysis (reference value: 0.19%); format: functional
[18] = Cytotoxicity against human MCF-10F cells assessed as cell growth inhibition at 10 uM relative to control; format: toxicity, cell-based; details: read-out: GI
[19] = Cytotoxicity against human MRC5 cells assessed as cell growth inhibition at 10 uM relative to control; format: toxicity, cell-based; details: read-out: GI
[20] = Cytotoxicity against human HCN-1A cells assessed as cell growth inhibition at 10 uM relative to control; format: toxicity, cell-based; details: read-out: GI
[21] = Cytotoxicity against human BJ cells assessed as cell growth inhibition at 10 uM relative to control; format: toxicity, cell-based; details: read-out: GI
[22] = tested on: INS1; experiment: Induction of apoptosis in rat INS1 cells assessed as total apoptotic cells at 1 uM incubated for 36 hrs by Annexin V-FITC/ propidium iodide staining based flow cytometry analysis (reference value: 0.53%); format: functional
[23] = Cytotoxicity against human ECT1/E6E7 cells assessed as cell growth inhibition at 10 uM relative to control; format: toxicity, cell-based; details: read-out: GI
[24] = tested on: INS1; experiment: Induction of apoptosis in rat INS1 cells assessed as early apoptotic cells at 1 uM incubated for 36 hrs by Annexin V-FITC/ propidium iodide staining based flow cytometry analysis (reference value: 0.34%); format: functional
[25] = Cytotoxicity against human THLE-2 cells assessed as cell growth inhibition at 10 uM relative to control; format: toxicity, cell-based; details: read-out: GI
[26] = Cytotoxicity against human WPE1-NA22 cells assessed as cell growth inhibition at 10 uM relative to control; format: toxicity, cell-based; details: read-out: GI
[27] = Cytotoxicity against HEK293 cells assessed as cell growth inhibition at 10 uM relative to control; format: toxicity, cell-based; details: human, read-out: GI
[28] = Cytotoxicity against human MCF-10F cells assessed as cell growth inhibition; format: toxicity, cell-based
[29] = Cytotoxicity against human ECT1/E6E7 cells assessed as cell growth inhibition; format: toxicity, cell-based
[30] = Cytotoxicity against human WPE1-NA22 cells assessed as cell growth inhibition; format: toxicity, cell-based
[31] = Cytotoxicity against human BJ cells assessed as cell growth inhibition; format: toxicity, cell-based
[32] = Cytotoxicity against human HCN-1A cells assessed as cell growth inhibition; format: toxicity, cell-based
[33] = Cytotoxicity against human THLE-2 cells assessed as cell growth inhibition; format: toxicity, cell-based
[34] = Cytotoxicity against HEK293 cells assessed as cell growth inhibition; format: toxicity, cell-based; details: human
[35] = Cytotoxicity against human MRC5 cells assessed as cell growth inhibition; format: toxicity, cell-based
[36] = tested on: voltage dependent L/T-type calcium channel; experiment: Inhibition of voltage dependent L/T-type calcium channel in human SH-SY5Y cells; details: sh-sy5y

| SMILES | Activity [1] [g] | Activity [2] | Activity [3] [%] | Activity [4] [mg/dL] | Activity [6] | Activity [8] | Activity [9] | Activity [11] [%] | inhibition at 10 µM [18] [%] | inhibition at 10 µM [19] [%] | inhibition at 10 µM [20] [%] | inhibition at 10 µM [21] [%] | inhibition at 10 µM [23] [%] | inhibition at 10 µM [25] [%] | inhibition at 10 µM [26] [%] | inhibition at 10 µM [27] [%] | also measured |
| --- | --- | --- | --- | --- | --- | --- | --- | --- | --- | --- | --- | --- | --- | --- | --- | --- | --- |
| CCOC(=O)C1=C(C)NC(C)=C(C(=O)OC(C)(C)C)C1c1cccc2c1OCO2 (stereo unspecified) | 28.6 | Non-Toxic | 0.25 | 223.65 | Non-Toxic | Non-Toxic | Non-Toxic | <1 |  |  |  |  |  |  |  |  | Activity [5]: 403.17 pg/mL; Activity [7]: 175.14 U/ml; Activity [10]: 1050.5 ng/mL; Activity [12]: 183.21 U/ml; Activity [13]: 7.01 uU/ml; Activity [14]: 20.99 nmol/mL |
| O=c1c(O)c(-c2ccc(O)c(O)c2)oc2cc(O)cc(O)c12 [QUERCETIN] |  |  |  |  |  |  |  |  |  |  |  |  |  |  |  |  | IC50 [15]: 8.21 µM |
| CCC1=C(C)CN(C(=O)NCCc2ccc(S(=O)(=O)NC(=O)N[C@H]3CC[C@H](C)CC3)cc2)C1=O [GLIMEPIRIDE] | 30.92 |  | 33.5 | 198.3 |  |  |  |  | 27.1 | 24.2 | 41.6 | 35.8 | 22 | 28.8 | 27.8 | 74 | Activity [16]: 2.86%; Activity [17]: 0.27%; Activity [5]: 195.75 pg/mL; Activity [7]: 202.06 U/ml; Activity [10]: 639.5 ng/mL; Activity [22]: 0.76%; Activity [12]: 199.33 U/ml; Activity [13]: 11.88 uU/ml; Activity [24]: 0.49%; Activity [14]: 14.52 nmol/mL |
| CN(N=O)C(=O)N[C@@H](C=O)[C@@H](O)[C@H](O)[C@H](O)CO [STREPTOZOCIN] |  |  |  |  |  |  |  |  |  |  |  |  |  |  |  |  | Activity [16]: 11.65%; Activity [17]: 0.47%; Activity [22]: 2.09%; Activity [24]: 1.62% |
| C[C@H]1O[C@H](O[C@H]2[C@H](O)[C@@H](O)[C@@H](O[C@H]3[C@H](O)[C@@H](O)C(O)O[C@@H]3CO)O[C@@H]2CO)[C@H](O)[C@@H](O)[C@@H]1N[C@H]1C=C(CO)[C@@H](O)[C@H](O)[C@H]1O (stereo partly specified) [ACARBOSE] |  |  |  |  |  |  |  |  | 10.5 | 32.3 | 44.3 | 47.8 | 20.1 | 19.1 | 55.3 | 80.7 |  |
| COc1cccc2c1C(=O)c1c(O)c3c(c(O)c1C2=O)C[C@@](O)(C(=O)CO)C[C@@H]3O[C@H]1C[C@H](N)[C@H](O)[C@H](C)O1 [DOXORUBICIN] |  |  |  |  |  |  |  |  | 41.6 | 38.4 | 40.9 | 45.8 | 33 | 35.6 | 57.1 | 46 | GI50 [28]: 14.2 µM; GI50 [29]: 1.47 µM; GI50 [30]: 11.6 µM; GI50 [31]: 8.91 µM; GI50 [32]: 11.2 µM; GI50 [33]: 17.1 µM; GI50 [34]: 9.69 µM; GI50 [35]: 12.5 µM |
| COC(=O)C1=C(C)NC(C)=C(C(=O)OC)C1c1ccccc1[N+](=O)[O-] [NIFEDIPINE] |  |  |  |  |  |  |  |  |  |  |  |  |  |  |  |  | IC50 [36]: 21.9 µM |
| COC(=O)C1=C(C)NC(C)=C(C(=O)OCc2ccccc2)C1c1cccc2c1OCO2 (stereo unspecified) | 27.4 | Non-Toxic | 43.55 | 168.33 | Non-Toxic | Non-Toxic | Non-Toxic | 130 |  |  |  |  |  |  |  |  |  |
| COC(=O)C1=C(C)NC(C)=C(C(=O)OC(C)C)C1c1cccc2c1OCO2 (stereo unspecified) | 28.9 | Non-Toxic | 20.11 | 238.23 | Non-Toxic | Non-Toxic | Non-Toxic | 60 |  |  |  |  |  |  |  |  |  |

Reference: ChEMBL document CHEMBL5316297, “Mechanistic Insight of Synthesized 1,4-Dihydropyridines as an Antidiabetic Sword against Reactive Oxygen Species” (J Med Chem, 2023)
